Measured values reported in article PMC12113356, “Novel Anti-MRSA Peptide from Mangrove-Derived Virgibacillus chiguensis FN33 Supported by Genomics and Molecular Dynamics” (Marine Drugs, 2025).
In brackets after ≈: the same amount, converted by molar mass. Where two headings read alike, the source gives them in different places.

Columns and labels:
[1] = DPPH radical-scavenging assay; settings: 0.1 mM DPPH, 25 °C, 30 min in darkness, absorbance 517 nm; mean ± SD, n = 3
Protocol: A 200 μL sample or ascorbic acid (Gammaco Ltd., Bangkok, Thailand) was added to 2 mL of 0.1 mM DPPH solution (Merck Ltd., Bangkok, Thailand) and incubated at 25 °C in darkness for 30 min. The DPPH color change from purple to pale yellow was observed, and the absorbance at 517 nm was measured using a UV–visible spectrophotometer.

[2] = system: MRSA strain 2468; assay: Compatibility with surfactants (activity retention by agar well diffusion); type: physicochemical, Staphylococcus aureus; settings: surfactant 1% w/v alone, no AMP, agar well diffusion, % of untreated FN33 AMP sample, mean ± SD, n = 3
Protocol: The AMP solution was prepared in sterile purified water and adjusted to a final concentration of 32 µg/mL. To determine thermal stability, the AMP was exposed to temperatures of 30, 40, 60, 80, and 100 °C, as well as to autoclaving at 121 °C and 15 psi for 15 and 30 min. The susceptibility of the AMP to enzymatic degradation was examined by treating it with proteinase K, trypsin, and α-chymotrypsin (each at 1 mg/mL, Sigma-Aldrich, Warren, MI, USA), representing different proteolytic mechanisms. The AMP’s compatibility with surfactants was assessed by incubating it with 1% SDS, 1% CTAB, and 1% Triton X-100 (AppliChem GmbH, Darmstadt, Germany). Additionally, the effect of pH variations on AMP integrity was tested by adjusting the solution to pH 1, 4, 8, 10, and 14. The pH was neutralized to the original pH after incubation before conducting antibacterial activity tests. […] Stability data were expressed as residual activity percentages relative to the untreated sample (mean ± SD), and statistical significance was evaluated using two-way ANOVA and Tukey’s post hoc test, with a p-value < 0.05 considered significant.

[3] = system: E. coli TISTR 887; assay: Agar well diffusion method; type: cell-based; settings: 9 mm wells, MH agar, 37 °C 18 h, antibiotics 30 µg, mean ± SD, n = 3
Protocol: (§1) The optical density of the starter cultures was adjusted to 0.1 OD at 625 nm using 0.85% sterile NaCl solution before transferring 1 mL of the culture into 49 mL of fresh broth. The inoculum was then incubated at 30 °C with shaking at 150 rpm for 3 days. The CFS was obtained by centrifugation at 10,000× g at 4 °C for 15 min and filtered through a 0.2 µm sterile cellulose acetate syringe filter (Sigma-Aldrich, Warren, MI, USA). The antibacterial activity of the isolates was tested against S. aureus TISTR 517, E. coli TISTR 887, K. pneumoniae TISTR 1383, and P. aeruginosa TISTR 357, obtained from the Thailand Institute of Scientific and Technological Research (TISTR), Thailand, and three MRSA strains (strains 142, 1096, and 2468), provided by the medical technology laboratory of the School of Allied Health Sciences, Walailak University, Thailand. The pathogenic bacteria were incubated on MH agar at 37 °C for 18 h to obtain fresh cultures. Colonies of the test pathogens were scraped and suspended in 0.85% sterile NaCl solution. The test pathogen suspensions were adjusted to a turbidity equivalent to 0.1 OD at 625 nm before being spread onto MH agar plates. […] Wells with a diameter of 9 mm were made in the agar using a sterile cork borer. The collected CFS from the bacterial culture was transferred into the wells, and the plates were incubated at 37 °C for 18 h. Cefoxitin (30 µg) and vancomycin (30 µg) (Sigma-Aldrich Co., St. Louis, MO, USA) were used as positive controls. The experiment was repeated in triplicate, and the mean ± SD of the inhibition zone diameters was recorded.

[4] = system: K. pneumoniae TISTR 1383; assay: Agar well diffusion method; type: cell-based; settings: 9 mm wells, MH agar, 37 °C 18 h, antibiotics 30 µg, mean ± SD, n = 3
Protocol: as §1

[5] = system: P. aeruginosa TISTR 357; assay: Agar well diffusion method; type: cell-based; settings: 9 mm wells, MH agar, 37 °C 18 h, antibiotics 30 µg, mean ± SD, n = 3
Protocol: as §1

[6] = system: MRSA strain 142; assay: Broth microdilution MIC/MBC (CLSI); type: cell-based; settings: Staphylococcus aureus
Protocol: (§2) The broth microdilution method was performed following the guidelines of the Clinical and Laboratory Standards Institute (CLSI). Test strains including S. aureus TISTR 517 and MRSA strains 142, 1096, and 2468 were cultured on MH agar at 37 °C for 18 h. A single colony from each strain was suspended in 0.85% NaCl until it reached a turbidity of 0.1 OD at 625 nm (1 × 10^8 CFU/mL). The bacterial cells were then diluted to 5 × 10^6 CFU/mL using cation-adjusted Mueller–Hinton broth (CAMHB). Ten microliters of the cell suspension were added to each well of a 96-well plate to make the total volume in each well 100 µL. The AMP was added to achieve final concentrations ranging from 0.125 to 64 µg/mL. Vancomycin and cefoxitin were used as positive controls, while antibiotic-free samples were used as negative controls. The plate was incubated at 37 °C for 24 h. Each experiment was performed in triplicate. The MIC was determined as the lowest concentration that inhibited visible bacterial growth. For the MBC, 100 µL from each dilution was spread on MH agar and incubated at 37 °C for 24 h. The MBC was the lowest concentration at which no bacterial colonies appeared on the agar plates.

[7] = system: MRSA strain 1096; assay: Broth microdilution MIC/MBC (CLSI); type: cell-based; settings: Staphylococcus aureus
Protocol: as §2

[8] = system: MRSA strain 2468; assay: Broth microdilution MIC/MBC (CLSI); type: cell-based; settings: Staphylococcus aureus
Protocol: as §2

[9] = system: MRSA strain 142; assay: Agar well diffusion method; type: cell-based, Staphylococcus aureus; settings: 9 mm wells, MH agar, 37 °C 18 h, antibiotics 30 µg, mean ± SD, n = 3
Protocol: as §1

[10] = system: MRSA strain 1096; assay: Agar well diffusion method; type: cell-based, Staphylococcus aureus; settings: 9 mm wells, MH agar, 37 °C 18 h, antibiotics 30 µg, mean ± SD, n = 3
Protocol: as §1

[11] = system: S. aureus TISTR 517; assay: Agar well diffusion method; type: cell-based, Staphylococcus aureus; settings: 9 mm wells, MH agar, 37 °C 18 h, antibiotics 30 µg, mean ± SD, n = 3
Protocol: as §1

[12] = system: MRSA strain 2468; assay: Agar well diffusion method; type: cell-based, Staphylococcus aureus; settings: 9 mm wells, MH agar, 37 °C 18 h, antibiotics 30 µg, mean ± SD, n = 3
Protocol: as §1

[13] = system: MRSA strains; assay: Broth microdilution MIC/MBC (CLSI), for the MRSA strains together; type: cell-based; settings: Staphylococcus aureus
Protocol: as §2

[14] = system: S. aureus TISTR 517; assay: Broth microdilution MIC/MBC (CLSI); type: cell-based, Staphylococcus aureus
Protocol: as §2

[15] = system: S. aureus TISTR 517; assay: Scanning electron microscopy of treated cells; type: cell-based, Staphylococcus aureus; settings: 1× MIC, 16 h / 18 h (figure legend), 30,000× magnification
Excerpt: (§3) SEM was used to examine morphological alterations in the bacterial cells. […] This appearance reflected their natural cellular structure.
(§4) Figure 5 SEM images captured at 30,000× magnification. […] The non-treatment condition served as a negative control.

[16] = system: MRSA strain 2468; assay: Scanning electron microscopy of treated cells; type: cell-based, Staphylococcus aureus; settings: 1× MIC, 16 h / 18 h (figure legend), 30,000× magnification
Excerpt: as §3, §4

[17] = 100 µL of each dilution spread on MH agar, 37 °C 24 h, triplicate, read-out: MBC
[18] = broth microdilution, CAMHB, 37 °C 24 h, triplicate, read-out: MIC
[19] = 100 µL of each dilution spread on MH agar, 37 °C 24 h, triplicate
[20] = broth microdilution, CAMHB, 37 °C 24 h, triplicate
[21] = Staphylococcus aureus, TISTR517, 24 h

| Compound | Antibacterial activity against MRSA Strain 2468 of surfactant alone, on the scale of FN33 AMP activity retention (%) ([2]; 1 h) | Antibacterial activity against MRSA Strain 2468 of surfactant alone, on the scale of FN33 AMP activity retention (%) ([2]; 6 h) | Antibacterial activity against MRSA Strain 2468 of surfactant alone, on the scale of FN33 AMP activity retention (%) ([2]; 12 h) | Zone of Inhibition [3] [mm] | Zone of Inhibition [4] [mm] | Zone of Inhibition [5] [mm] | Zone of Inhibition [9] [mm] | Zone of Inhibition [10] [mm] | Zone of Inhibition [11] [mm] | Zone of Inhibition [12] [mm] | MBC [14, 19] [µg/mL] | MIC [14, 20] [µg/mL] | other results |
| --- | --- | --- | --- | --- | --- | --- | --- | --- | --- | --- | --- | --- | --- |
| O=C1O[C@H]([C@@H](O)CO)C(O)=C1O [Ascorbic acid, ascorbic acid, reference compound] |  |  |  |  |  |  |  |  |  |  |  |  | IC50 (DPPH radical scavenging) [1]: 6.78 ± 1.58 µg/mL (≈ 38.5 µM) |
| CCCCCCCCCCCCCCCC[N+](C)(C)C [CTAB, cetyltrimethylammonium bromide, reference compound] | 98.62 ± 0.69 | 98.89 ± 1.10 | 98.42 ± 0.72 |  |  |  |  |  |  |  |  |  |  |
| CO[C@@]1(NC(=O)Cc2cccs2)C(=O)N2C(C(=O)O)=C(COC(N)=O)CS[C@@H]21 [Cefoxitin] |  |  |  | 35.12 ± 1.04 | 19.67 ± 0.88 | 0.00 ± 0.00 | 0.00 ± 0.00 | 0.00 ± 0.00 | 35.87 ± 0.46 | 0.00 ± 0.00 | 2 (≈ 4.68 µM) | 2 (≈ 4.68 µM) | MBC [6, 17]: > 64 µg/mL; MIC [6, 18]: > 64 µg/mL; MBC [7, 17]: > 64 µg/mL; MIC [7, 18]: > 64 µg/mL; MBC [8, 17]: > 64 µg/mL; MIC [8, 18]: > 64 µg/mL; MBC ([13]; text statement for the MRSA strains (142, 1096, 2468) together, read-out: MBC): > 64 µg/mL; MIC ([13]; text statement for the MRSA strains (142, 1096, 2468) together, read-out: MIC): > 64 µg/mL; MBC ([14]; Staphylococcus aureus, TISTR517, 100 µL of each dilution spread on MH agar, 37 °C 24 h, triplicate, read-out: MBC): 2 µg/mL (≈ 4.68 µM); MIC ([14]; Staphylococcus aureus, TISTR517, broth microdilution, CAMHB, 37 °C 24 h, triplicate, read-out: MIC): 2 µg/mL (≈ 4.68 µM) |
| CCCCCCCCCCCCOS(=O)(=O)[O-].[Na+] [SDS, sodium dodecyl sulfate, reference compound] | 110.10 ± 0.84 | 109.30 ± 0.56 | 108.93 ± 0.57 |  |  |  |  |  |  |  |  |  |  |
| CN[C@H](CC(C)C)C(=O)N[C@H]1C(=O)N[C@@H](CC(N)=O)C(=O)N[C@H]2C(=O)N[C@H]3C(=O)N[C@H](C(=O)N[C@H](C(=O)O)c4cc(O)cc(O)c4-c4cc3ccc4O)[C@H](O)c3ccc(c(Cl)c3)Oc3cc2cc(c3O[C@@H]2O[C@H](CO)[C@@H](O)[C@H](O)[C@H]2O[C@H]2C[C@](C)(N)[C@H](O)[C@H](C)O2)Oc2ccc(cc2Cl)[C@H]1O [Vancomycin] |  |  |  | 0.00 ± 0.00 | 0.00 ± 0.00 | 0.00 ± 0.00 | 24.13 ± 1.27 | 24.38 ± 0.51 | 23.37 ± 1.27 | 24.64 ± 1.02 | 2 (≈ 1.38 µM) | 2 (≈ 1.38 µM) | MBC ([6]; 24 h): 2 µg/mL (≈ 1.38 µM); MIC ([6]; 24 h): 2 µg/mL (≈ 1.38 µM); MBC ([7]; 24 h): 2 µg/mL (≈ 1.38 µM); MIC ([7]; 24 h): 2 µg/mL (≈ 1.38 µM); MBC ([8]; 24 h): 2 µg/mL (≈ 1.38 µM); MIC ([8]; 24 h): 2 µg/mL (≈ 1.38 µM); MBC ([13]; MRSA): 2 µg/mL (≈ 1.38 µM); MIC ([13]; MRSA): 2 µg/mL (≈ 1.38 µM); morphological changes under SEM [15]: complete cell lysis; morphological changes under SEM [16]: complete cell lysis; MBC [14, 21]: 2 µg/mL (≈ 1.38 µM); MIC [14, 21]: 2 µg/mL (≈ 1.38 µM) |
| Triton X-100 [reference compound] | 0.00 ± 0.00 | 0.00 ± 0.00 | 0.00 ± 0.00 |  |  |  |  |  |  |  |  |  |  |
